Data set [1] deals with C5a stimulated neutrophil. Put plainly: Increase of intracellular Ca2+ concentration of C5a stimulated neutrophil. Type of data set: cell-based. The following applies: human neutrophils. How it is done: A neutrophil fraction was separately taken from human peripheral venous blood using Lympholyte-poly (Cedarlane), and suspended in Hank's Balanced Salt Solution (HBSS, GIBCO BRL) supplemented with 1% fetal bovine serum (FBS). Then, Fura 2-AM (final concentration 5 μM, DOJINDO) was added to the neutrophil fraction (5×10^6 cells/mL), and the mixture was incubated at 37° C. for 40 min. The cells were washed by centrifugation and suspended to the concentration of 1×10^6 cells/mL. The intracellular Ca^2+ concentration was measured using a spectrophotofluorometer (CAF-110, JASCO Corporation), and calculated from the ratio (Ex340 value/Ex380 value) of fluorescent intensities at 500 nm upon excitation at 340 nm and 380 nm, the former being Ex340 value, the latter being Ex380 value. […] Then, Triton X-100 (final concentration 0.2%) was added and the cells were dissolved, and sb2 value, which was the […] then, and Rmax value, which was the Ex340 value/Ex380 value then, was measured. Then, EGTA (final concentration 3 mmol/L) was added and sf2 value, which was the […] then, and Rmin value, which was the Ex340/Ex380 value then, was measured. From these measurement results, the intracellular Ca^2+ concentration was calculated from the following formula. […]

For data set [2], the system named is C5a stimulated neutrophil. Put plainly: Production of reactive oxygen species in C5a stimulated neutrophil. Type of data set: cell-based. The following applies: human neutrophils, C5a 3 nmol/L, luminol luminescence; read-out: IC50 value, concentration at which production of reactive oxygen species in C5a stimulated neutrophil is inhibited by 50%. The protocol:
A neutrophil fraction was separately taken from human peripheral venous blood using Lympholyte-poly (Cedarlane), and suspended in Hank's Balanced Salt Solution (HBSS, GIBCO BRL) containing 1% fetal bovine serum (FBS) and 1 mmol/L of luminol (Wako Pure Chemical Industries, Ltd.). Reactive oxygen species was measured using a luminometer (MicroLumat, Berthold) for 96 well plate. […] Then, 25 μL of C5a (final concentration 3 nmol/L) was added and luminescence produced by the reaction of the luminol and the reactive oxygen species was measured with the lapse of time for 15 min. The rate (% inhibition) of inhibition of the production of reactive oxygen species in C5a stimulated neutrophil by the test compound was calculated by the following formula, wherein the peak value of the production of reactive oxygen species derived by C5a without addition of the test compound is Max, the peak value of the production of reactive oxygen species without addition of the test compound and without C5a stimulation is Min, and the peak value of the production of reactive oxygen species derived by C5a with the addition of the test compound is Test. % Inhibition=100−[(Test-Min)/(Max-Min)]×100 […]

In data set [3] the test system is C5a-stimulated neutrophil. Put plainly: Migrating ability of C5a-stimulated neutrophil. Type of data set: cell-based. The following applies: 1.5 h, human neutrophils, C5a 100 pmol/L, 90 min, read-out: IC50 value, concentration at which migration of C5a-stimulated neutrophil is inhibited by 50%. How it is done:
A neutrophil fraction was separately taken from human peripheral venous blood using Lympholyte-poly (Cedarlane) and suspended in RPMI 1640 medium (GIBCO BRL) supplemented with 0.1% bovine serum albumin (BSA). To. this neutrophil fraction (5×10^6 cells/mL) was added Calcein-AM (final concentration 5 μM, FUNAKOSHI), and the mixture was incubated at 37° C. for 30 min. The cells were washed by centrifugation and suspended to a concentration of 1×10^6 cells/mL. The migration was evaluated by adding neutrophils to chemotaxicell (pore size: 3 μm, KURABO) and measuring the neutrophils that migrated outside the chemotaxicell. First, 100 pmol/L of C5a solution was added to 24 well plate (500 μL/well) and chemotaxicell was set in the well. […] The fluorescent intensity of each well was measured by Cyto Fluor II (Ex: 485, Em: 530). The rate (% inhibition) of the inhibition of migration of C5a-stimulated neutrophil by the test compound was calculated by the following formula, wherein the fluorescence intensity of neutrophil that migrated by C5a stimulation without addition of the test compound is Max, the fluorescent intensity of neutrophil that migrated without addition of test compound and without C5a stimulation is Min, and the fluorescent intensity of neutrophil that migrated by C5a stimulation with the addition of the test compound is Test. % Inhibition=100−[(Test-Min)/(Max-Min)]×100 […]

In the case of `CC(C)c1ccc(N(Cc2ccc(N(C)C)cc2)C(=O)C2CCCc3ccccc32)cc1` (centres unmarked) [Example 4, N-[(4-dimethylaminophenyl)methyl]-N-(4-isopropylphenyl)-1,2,3,4-tetrahydronaphthalene-1-carboxamide], the melting point (as a rule, the temperature of the solid-liquid transition) amounted to 121 °C. In addition, the “agonistic action (increase in intracellular Ca2+ by the compound alone)” value in data set [1] (compound 3 μmol/L) is “did not induce an increase in intracellular Ca^2+ and the agonistic action was not found”. Moreover, the IC50 in data set [1] (recombinant human C5a 100 pmol/L, read-out: IC50 value, concentration at which increase in intracellular Ca2+ concentration of C5a-stimulated neutrophil is inhibited by 50%) was 5 nM. For the same compound, in data set [2], the IC50 stood at 10 nM. Moreover, in data set [3], the IC50 is 100 nM.

For the origin of these results see patent US7855297B2, “Amide derivatives and medicinal use thereof” (Mitsubishi Tanabe Pharma Corporation, priority 2000, dated 2010).
